According to patent US8637496B2, “Compounds having a monogalactosyldiacylglycerol synthase inhibitory activity as herbicide or algaecide, herbicide and algaecide compositions” (Commissariat a l'Energie Atomique, priority 2007, dated 2014):
Where two headings read alike, the source gives them in different places.

Tests used:
[1] = target: T1, spinach recombinant MGDG synthase (soMGD) (Spinacia oleracea, UniProt Q9SM44); assay: MGDG synthase enzymatic assay of recombinant spinach MGD protein in mixed micelles; assay type: biochemical; conditions: recombinant enzyme expressed in E. coli, FIG. 2, read-out: IC50, inhibition of spinach recombinant MGDG synthase (soMGD) activity
T1 construct: The cDNA fragments corresponding to the mature form of spinach MGDG synthase, soMGD1; made in house; host or cells: Escherichia coli BL21-DE3, pET-3a (NdeI-BamHI)
T1 sequence (Q9SM44 99-522): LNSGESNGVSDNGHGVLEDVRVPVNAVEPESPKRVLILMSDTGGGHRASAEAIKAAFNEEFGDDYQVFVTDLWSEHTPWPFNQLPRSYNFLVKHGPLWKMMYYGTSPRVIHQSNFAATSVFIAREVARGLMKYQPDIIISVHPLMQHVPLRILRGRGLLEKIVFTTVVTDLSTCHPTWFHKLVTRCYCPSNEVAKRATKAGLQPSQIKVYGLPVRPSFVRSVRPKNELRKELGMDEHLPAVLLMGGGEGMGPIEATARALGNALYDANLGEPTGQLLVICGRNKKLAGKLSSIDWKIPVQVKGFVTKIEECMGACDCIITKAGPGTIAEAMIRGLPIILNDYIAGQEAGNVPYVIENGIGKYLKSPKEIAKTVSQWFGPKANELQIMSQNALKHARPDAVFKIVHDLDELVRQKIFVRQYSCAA
Text: The cDNA fragments corresponding to the mature form of spinach MGDG synthase, soMGD1 [accession number CAB56218], and from the three isoforms that are present in Arabidopsis, i.e. atMGD1 [accession number BAB12042], atMGD2 [accession number T52269] and atMGD3 [accession number BAB12041] were inserted into the pET-3a expression vector from Novagen, as described by Miège C. et al., Eur. J. Biochem, 1999, 265, 990-1001 and Awai K. et al., Proc. Natl. Acad. Sci. U.S.A., 2001, 98, 10960-10965. All MGD sequences used in this study were inserted in NdeI-BamHI cloning site of the pET-3a vector. Induction of recombinant proteins was achieved following the pET expression system procedure. Isolated colonies of transfected Escherichia coli (BL21-DE3) were inoculated in LB medium (2.5 ml, 100 μg/ml carbenicillin) and grown at 37° C. When OD600 reached 0.5, the cell suspension was transferred to 15 ml of LB medium ([…] carbenicillin) and grown at 37° C. until OD600 reached 0.5. […]
The MGDG synthase enzymatic assay was achieved as described by Maréchal E. et al., J. Biol. Chem., 1995, 270, 5714-5722. […] J. Biochem. Physiol., 1959, 37, 911-917 and the radioactivity of the [^14C]-labelled MGDG ultimately produced, determined by liquid scintillation counting. […]

[2] = target: T2, MGDG synthase in isolated spinach chloroplast envelope membranes (Spinacia oleracea, UniProt Q9SM44); assay: MGDG synthase activity in envelope membrane fractions isolated from spinach chloroplasts; assay type: biochemical
T2 construct: envelope membranes purified from the lysate by sucrose centrifugation gradient; from tissue; host or cells: envelope membranes of chloroplasts from spinach leaves
T2 sequence (Q9SM44 99-522): T1 sequence (Q9SM44 99-522)
How it was run: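 Envelope membranes purified from Percoll-isolated spinach chloroplasts by hypotonic lysis and sucrose gradient; MGDG synthase activity measured per published protocol.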

[3] = test system: Chlamydomonas reinhardtii; assay: Chlamydomonas reinhardtii growth assay; assay type: cell-based; conditions: day three (d=3)
Description: An axenic suspension of Chlamydomonas reinhardtii (10 μl) is introduced in a liquid TAP medium (Tris-Acetate-Phosphate medium, as described by Rochaix et al., (The Molecular Biology of Chloroplasts and Mitochondria in Chlamydomeonas; Advances in Photosynthesis, (1998) Vol. 7. Kluwer Academic Publishers, Dordrecht, The Netherlands) with or without compound according to the invention. The compounds to be tested have been solubilized in dimethylsulfoxide (DMSO) and supplied directly in the growth medium, at concentrations ranging from 0 to 200 μM. Final concentration of DMSO in medium was 10%. Chlamydomonas suspensions were then grown at 20° C., under continuous light (50 μE.m^−2.s^−1). Growth was assessed by counting the algae in a 40 μl aliquot using a Malassez cell and examining the cell vitality by standard microscopic methods.
Control herbicide is Triclosan.

[4] = Table 1, obtained in the same manner as FIG. 4, read-out: Inhibitory effect on MGDG synthesis in isolated spinach chloroplast envelope membranes

Structure (SMILES) | IC50 [1] | IC50 [2, 4] | IC50 ([2]; spinach chloroplast envelope membranes, FIG. 4, read-out: IC50, MGDG synthase activity in envelope membranes that surround chloroplasts) | morphology of Chlamydomonas when incubated with compound (FIG. 6) [3]
C[C@@H](COC(=O)N1CCC(n2c(=O)[nH]c3ccccc32)CC1)N(Cc1ccccc1)Cc1ccccc1 [Compound 7, (S)-2-(dibenzylamino)propyl 4-(1,2-dihydro-2-oxobenzo[d]imidazol-3-yl)piperidine-1-carboxylate] | 45 µM | 45 µM | 10 µM | 
O=c1[nH]c2ccccc2n1C1CCN(C(=S)OCCOCc2ccccc2)CC1 [Compound 20, O-2-(benzyloxy)ethyl 4-(1,2-dihydro-2-oxobenzo[d]imidazol-3-yl)piperidine-1-carbothioate] |  | 100 to 500 µM |  | fails to divide
O=C(OC1CN(C(c2ccccc2)c2ccccc2)C1)N1CCC(n2c(=O)[nH]c3ccccc32)CC1 [Compound 13, 1-benzhydrylazetidin-3-yl 4-(1,2-dihydro-2-oxobenzo[d]imidazol-3-yl)piperidine-1-carboxylate] |  | 100 to 500 µM |  | fails to divide
O=C(OCCN(Cc1ccccc1)Cc1ccccc1)N1CCC(n2c(=O)[nH]c3ccccc32)CC1 [Compound 11, 2-(dibenzylamino)ethyl 4-(1,2-dihydro-2-oxobenzo[d]imidazol-3-yl)piperidine-1-carboxylate] |  | 15 µM |  | fails to divide
O=C(OC[C@H](Cc1ccccc1)N(Cc1ccccc1)Cc1ccccc1)N1CCC(n2c(=O)[nH]c3ccccc32)CC1 [Compound 8, (S)-2-(dibenzylamino)-3-phenylpropyl 4-(1,2-dihydro-2-oxobenzo[d]imidazol-3-yl)piperidine-1-carboxylate] | 100 µM | 10 µM |  | 
